Assay results published in ChEMBL document CHEMBL3885881, “DrugMatrix”.

Organism: Rattus norvegicus
Assay: DrugMatrix - Regimen: Daily Repeat
Assay type: toxicity, organism-based, Sprague-Dawley
Design: regimen Daily Repeat, gender Male, age 6-8 weeks
Conditions: in vivo, po, route oral GAVAGE, vehicle .5 % CMC; for ABSOLUTE BASOPHIL / ABSOLUTE EOSINOPHIL / ABSOLUTE LYMPHOCYTE / ABSOLUTE MONOCYTE / ABSOLUTE SEGMENTED NEUTROPHIL / BASOPHIL / EOSINOPHIL / ERYTHROCYTE COUNT / HEMATOCRIT / HEMOGLOBIN / LEUKOCYTE COUNT / LYMPHOCYTE / MEAN CORPUSCULAR HEMOGLOBIN / MEAN CORPUSCULAR HEMOGLOBIN CONCENTRATION / MEAN CORPUSCULAR VOLUME / MONOCYTE / NEUTROPHIL / NUCLEATED RED BLOOD CELLS / PLATELET COUNT: tissue Blood; for ALANINE AMINOTRANSFERASE / ALBUMIN / ALKALINE PHOSPHATASE / ASPARTATE AMINOTRANSFERASE / BLOOD UREA NITROGEN / CARBON DIOXIDE / CHLORIDE / CHOLESTEROL / CREATINE PHOSPHOKINASE / CREATININE / GLUCOSE / LACTATE DEHYDROGENASE / LIPASE / PHOSPHORUS / POTASSIUM / SODIUM / TOTAL BILIRUBIN / TOTAL PROTEIN / URIC ACID: tissue Plasma
[1] = 100 mg/kg, 72 h, dose level Low, time 3 day
[2] = 100 mg/kg, 120 h, dose level Low, time 5 day
[3] = 1500 mg/kg, 72 h, dose level High, time 3 day
[4] = 1500 mg/kg, 120 h, dose level High, time 5 day

Which results are given for CC(C)Oc1ccc2c(=O)c(-c3ccccc3)coc2c1 [IPRIFLAVONE]?
ABSOLUTE BASOPHIL [1]: 0 CELLS/uL; ABSOLUTE EOSINOPHIL [1]: 99.33 CELLS/uL; ABSOLUTE LYMPHOCYTE [1]: 13635.33 CELLS/uL; ABSOLUTE MONOCYTE [1]: 415.67 CELLS/uL; ABSOLUTE SEGMENTED NEUTROPHIL [1]: 2916.33 CELLS/uL; BASOPHIL [1]: 0%; EOSINOPHIL [1]: 0.67%; ERYTHROCYTE COUNT [1]: 5.96 x10E6/uL; HEMATOCRIT [1]: 37.1%; HEMOGLOBIN [1]: 14.43 G/DL; LEUKOCYTE COUNT [1]: 17.07 x10E3/uL; LYMPHOCYTE [1]: 80.33%; MEAN CORPUSCULAR HEMOGLOBIN [1]: 24.23 pg; MEAN CORPUSCULAR HEMOGLOBIN CONCENTRATION [1]: 38.93 G/DL; MEAN CORPUSCULAR VOLUME [1]: 62.3 fL; MONOCYTE [1]: 2.33%; NEUTROPHIL [1]: 16.67%; NUCLEATED RED BLOOD CELLS [1]: 0 /100WBC; PLATELET COUNT [1]: 1359 x10E3/uL; ALANINE AMINOTRANSFERASE [1]: 44 u/L; ALBUMIN [1]: 4.53 G/DL; ALKALINE PHOSPHATASE [1]: 342.67 u/L; ASPARTATE AMINOTRANSFERASE [1]: 79.33 u/L; BLOOD UREA NITROGEN [1]: 19.67 mg/dL; CARBON DIOXIDE [1]: 24.33 mmol/L; CHLORIDE [1]: 97.67 MEQ/L; CHOLESTEROL [1]: 61.67 mg/dL; CREATINE PHOSPHOKINASE [1]: 241.33 u/L; CREATININE [1]: 0.23 mg/dL; GLUCOSE [1]: 153.33 mg/dL; LACTATE DEHYDROGENASE [1]: 129.33 u/L; LIPASE [1]: 9.67 u/L; PHOSPHORUS [1]: 11.17 mg/dL; POTASSIUM [1]: 7.3 MEQ/L; SODIUM [1]: 139.57 MEQ/L; TOTAL BILIRUBIN [1]: 0.23 mg/dL; TOTAL PROTEIN [1]: 6.17 G/DL; URIC ACID [1]: 2.23 mg/dL; ABSOLUTE BASOPHIL [2]: 0 CELLS/uL; ABSOLUTE EOSINOPHIL [2]: 57.67 CELLS/uL; ABSOLUTE LYMPHOCYTE [2]: 12897.67 CELLS/uL; ABSOLUTE MONOCYTE [2]: 315.33 CELLS/uL; ABSOLUTE SEGMENTED NEUTROPHIL [2]: 1196 CELLS/uL; BASOPHIL [2]: 0%; EOSINOPHIL [2]: 0.33%; ERYTHROCYTE COUNT [2]: 6.06 x10E6/uL; HEMATOCRIT [2]: 36.3%; HEMOGLOBIN [2]: 14.4 G/DL; LEUKOCYTE COUNT [2]: 14.47 x10E3/uL; LYMPHOCYTE [2]: 89%; MEAN CORPUSCULAR HEMOGLOBIN [2]: 23.8 pg; MEAN CORPUSCULAR HEMOGLOBIN CONCENTRATION [2]: 39.67 G/DL; MEAN CORPUSCULAR VOLUME [2]: 59.93 fL; MONOCYTE [2]: 2%; NEUTROPHIL [2]: 8.67%; NUCLEATED RED BLOOD CELLS [2]: 0.33 /100WBC; PLATELET COUNT [2]: 1112 x10E3/uL; ALANINE AMINOTRANSFERASE [2]: 47 u/L; ALBUMIN [2]: 4.3 G/DL; ALKALINE PHOSPHATASE [2]: 297.33 u/L; ASPARTATE AMINOTRANSFERASE [2]: 91.33 u/L; BLOOD UREA NITROGEN [2]: 15 mg/dL; CARBON DIOXIDE [2]: 25.33 mmol/L; CHLORIDE [2]: 100.67 MEQ/L; CHOLESTEROL [2]: 64 mg/dL; CREATINE PHOSPHOKINASE [2]: 318.67 u/L; CREATININE [2]: 0.19 mg/dL; GLUCOSE [2]: 158.67 mg/dL; LACTATE DEHYDROGENASE [2]: 474.67 u/L; LIPASE [2]: 9 u/L; PHOSPHORUS [2]: 11.83 mg/dL; POTASSIUM [2]: 6.46 MEQ/L; SODIUM [2]: 142.8 MEQ/L; TOTAL BILIRUBIN [2]: 0.13 mg/dL; TOTAL PROTEIN [2]: 5.93 G/DL; URIC ACID [2]: 1.7 mg/dL; ABSOLUTE BASOPHIL [3]: 0 CELLS/uL; ABSOLUTE EOSINOPHIL [3]: 0 CELLS/uL; ABSOLUTE LYMPHOCYTE [3]: 12351.67 CELLS/uL; ABSOLUTE MONOCYTE [3]: 95 CELLS/uL; ABSOLUTE SEGMENTED NEUTROPHIL [3]: 2086.67 CELLS/uL; BASOPHIL [3]: 0%; EOSINOPHIL [3]: 0%; ERYTHROCYTE COUNT [3]: 5.63 x10E6/uL; HEMATOCRIT [3]: 34.7%; HEMOGLOBIN [3]: 13.77 G/DL; LEUKOCYTE COUNT [3]: 14.53 x10E3/uL; LYMPHOCYTE [3]: 85%; MEAN CORPUSCULAR HEMOGLOBIN [3]: 24.47 pg; MEAN CORPUSCULAR HEMOGLOBIN CONCENTRATION [3]: 39.67 G/DL; MEAN CORPUSCULAR VOLUME [3]: 61.63 fL; MONOCYTE [3]: 0.67%; NEUTROPHIL [3]: 14.33%; NUCLEATED RED BLOOD CELLS [3]: 0.33 /100WBC; PLATELET COUNT [3]: 1247.33 x10E3/uL; ALANINE AMINOTRANSFERASE [3]: 44.33 u/L; ALBUMIN [3]: 4.3 G/DL; ALKALINE PHOSPHATASE [3]: 325 u/L; ASPARTATE AMINOTRANSFERASE [3]: 80.33 u/L; BLOOD UREA NITROGEN [3]: 15.33 mg/dL; CARBON DIOXIDE [3]: 27 mmol/L; CHLORIDE [3]: 101 MEQ/L; CHOLESTEROL [3]: 68.67 mg/dL; CREATINE PHOSPHOKINASE [3]: 256.33 u/L; CREATININE [3]: 0.15 mg/dL; GLUCOSE [3]: 149.33 mg/dL; LACTATE DEHYDROGENASE [3]: 181 u/L; LIPASE [3]: 9.33 u/L; PHOSPHORUS [3]: 12.3 mg/dL; POTASSIUM [3]: 6.1 MEQ/L; SODIUM [3]: 143.17 MEQ/L; TOTAL BILIRUBIN [3]: 0.1 mg/dL; TOTAL PROTEIN [3]: 5.67 G/DL; URIC ACID [3]: 1.53 mg/dL; ABSOLUTE BASOPHIL [4]: 0 CELLS/uL; ABSOLUTE EOSINOPHIL [4]: 0 CELLS/uL; ABSOLUTE LYMPHOCYTE [4]: 12219.33 CELLS/uL; ABSOLUTE MONOCYTE [4]: 47.33 CELLS/uL; ABSOLUTE SEGMENTED NEUTROPHIL [4]: 1100 CELLS/uL; BASOPHIL [4]: 0%; EOSINOPHIL [4]: 0%; ERYTHROCYTE COUNT [4]: 5.81 x10E6/uL; HEMATOCRIT [4]: 35.17%; HEMOGLOBIN [4]: 14.03 G/DL; LEUKOCYTE COUNT [4]: 13.37 x10E3/uL; LYMPHOCYTE [4]: 91.33%; MEAN CORPUSCULAR HEMOGLOBIN [4]: 24.23 pg; MEAN CORPUSCULAR HEMOGLOBIN CONCENTRATION [4]: 39.9 G/DL; MEAN CORPUSCULAR VOLUME [4]: 60.63 fL; MONOCYTE [4]: 0.33%; NEUTROPHIL [4]: 8.33%; NUCLEATED RED BLOOD CELLS [4]: 0 /100WBC; PLATELET COUNT [4]: 1215 x10E3/uL; ALANINE AMINOTRANSFERASE [4]: 48 u/L; ALBUMIN [4]: 4.47 G/DL; ALKALINE PHOSPHATASE [4]: 278.33 u/L; ASPARTATE AMINOTRANSFERASE [4]: 72.33 u/L; BLOOD UREA NITROGEN [4]: 14.67 mg/dL; CARBON DIOXIDE [4]: 25.67 mmol/L; CHLORIDE [4]: 102.33 MEQ/L; CHOLESTEROL [4]: 53 mg/dL; CREATINE PHOSPHOKINASE [4]: 231 u/L; CREATININE [4]: 0.16 mg/dL; GLUCOSE [4]: 153 mg/dL; LACTATE DEHYDROGENASE [4]: 157.33 u/L; LIPASE [4]: 9.67 u/L; PHOSPHORUS [4]: 11.6 mg/dL; POTASSIUM [4]: 6.76 MEQ/L; SODIUM [4]: 145.4 MEQ/L; TOTAL BILIRUBIN [4]: 0.2 mg/dL; TOTAL PROTEIN [4]: 6.17 G/DL; URIC ACID [4]: 1.9 mg/dL
